# Experimental data: patent US7399754B2, “N2-quinoline or isoquinoline substituted purine derivatives” (priority 2005, dated 2008)
# Tests used:
# H-22 liver cancer = experiment: Subcutaneous H-22 liver cancer growth in mice; type: in vivo; settings: 50 mg/kg daily intralesional, 14 days treatment period
# Description: (§1) To determine if Compound I could inhibit primary tumor growth, syngeneic mice (C57B 16/J) bearing subcutaneous Lewis lung carcinomas and H-22 liver cancer were treated with Compound I with daily intralesional injections of (50 mg/kg) 1 mg of Compound I per 20 g mouse body weight.
# H-22 liver cancer cells = experiment: MTT and SRB growth inhibition assays; type: cell-based
# Description: (§2) The anti-cancer activities of COMPOUND I were evaluated using the microtetrazoline (MTT) and sulforhodamine B (SRB) assays.
# leukemia cells = experiment: MTT and SRB growth inhibition assays; type: cell-based
# Description: as §2
# human cancer cells = experiment: Human cancer cells transplanted to nude mice; type: in vivo
# Description: The in vivo anti-cancer activities of COMPOUND I were further evaluated using various other human cancer cells transplanted to nude mice.
# most cancer types = experiment: MTT and SRB growth inhibition assays, many cancer types; type: cell-based
# Description: as §2
# [1] = tested on: LNCap prostate cancer cells; experiment: Pulse-exposure clonal growth study; type: cell-based
# Description: (§3) Pulse-exposure studies, using methods as described in Kubota et al., Cancer Res. 1998; 58: 3370-3375 and Campbell et al., J. Mol. Endocrinol.
# [2] = tested on: PC-3 prostate cancer cells; experiment: Pulse-exposure clonal growth study; type: cell-based; settings: PC-3, pulse-exposure
# Description: as §3
# [3] = tested on: Du145 prostate cancer cells; experiment: Pulse-exposure clonal growth study; type: cell-based
# Description: as §3
# [4] = tested on: Lewis lung carcinoma cells; experiment: MTT and SRB growth inhibition assays; type: cell-based, murine; settings: Mus musculus
# Description: as §2
# malignant cells = experiment: Clonal proliferation, cell cycle and apoptosis of malignant cells in vitro; type: cell-based
# Description: as §3
# Lewis lung carcinomas = experiment: Subcutaneous Lewis lung carcinoma growth in mice; type: in vivo; settings: for Tumor vol.: daily intralesional injections 50 mg/kg
# Description: as §1
# Inhibition of primary tumor growth was first observed at dose of 20 mg/kg/day. Increased doses of Compound I correlated with increased efficacy of tumor inhibition. Inhibition of metastatic growth occurred at doses of approximately 20 mg/kg/day. […] In contrast, tumor in animals treated with saline grew rapidly in size to >6.000 mm^3, leading to the demise of all animals on day 17 after tumor implantation.
compound,measurement,setting,value
c1cnc2ccc(Nc3nc(NC4CC4)c4nc[nH]c4n3)cc2c1 [Compound I],growth of H-22 liver cancer in mice,H-22 liver cancer,primary tumor growth was inhibited
same,IC50,H-22 liver cancer cells,2.24 µg/mL
same,IC50,leukemia cells,2.5 µg/mL
same,in vivo growth of human cancers,human cancer cells,inhibits in vivo growth of many types of human cancers
same,growth in vitro of many types of cancers,most cancer types; MTT and SRB assays,significantly inhibited growth
same,IC50,most cancer types; most cancer types,500 to 3000 nM
same,50% inhibition (ED50) of clonal growth,[1],approximately 18 μg/ml
same,50% inhibition (ED50) of clonal growth,[2],approximately 18 μg/ml
same,50% inhibition (ED50) of clonal growth,[3],approximately 18 μg/ml
same,IC50,[4],2.81 µg/mL
same,clonal proliferation of a variety of malignant cells in vitro,"malignant cells; prostate and breast cancers, neuroepithelioma, melanoma, leukemia",inhibit the clonal proliferation
same,cell cycle arrest and apoptosis,malignant cells; some of these cells,induces cell cycle arrest and apoptosis
same,Tumor vol.,Lewis lung carcinomas; day 2,200 mm^3
same,Tumor vol.,Lewis lung carcinomas; day 4,300 mm^3
same,Tumor vol.,Lewis lung carcinomas; day 6,500 mm^3
same,Tumor vol.,Lewis lung carcinomas; day 8,700 mm^3
same,Tumor vol.,Lewis lung carcinomas; day 10,900 mm^3
same,Tumor vol.,Lewis lung carcinomas; day 12,1200 mm^3
same,Tumor vol.,Lewis lung carcinomas; day 14,1500 mm^3
same,Tumor vol.,Lewis lung carcinomas; day 16,1800 mm^3
same,Tumor vol.,Lewis lung carcinomas; day 17,2200 mm^3
same,toxicity,Lewis lung carcinomas; treated tumor-bearing mice,no detectable toxicity
same,dose at which inhibition of metastatic growth occurred,Lewis lung carcinomas; tumor-bearing mice,approximately 20 mg/kg/day
same,dose at which inhibition of primary tumor growth was first observed,Lewis lung carcinomas; tumor-bearing mice,20 mg/kg/day
